What all share (experiment): NCI-60 cell line screen, 48 h
Test [1] has as its system CCRF-CEM leukemia.
In test [2] the test system is HCT-116 colon.
For test [3], the system named is OVCAR-3 ovarian.
Test [4] deals with OVCAR-4 ovarian.
The subject of test [5] is PC-3 prostate.
In test [6] the test system is RXF 393 renal.
In test [7] the test system is SF-539 CNS.
The test system of test [8] is SNB-19 CNS.
Test [9] relates to TK-10 renal.
The subject of test [10] is MALME-3M melanoma.

Structures are written as SMILES.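 In this assay, cells in 96-well plates receive the compound at five concentrations for 48 hours. Endpoints are linearly interpolated between the surrounding concentrations. Abbreviation: GI50, concentration required for 50% inhibition of growth. At the TGI there is no net growth.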

As to `COc1ccc(OC)c(/C=C/c2nc(SCc3ccccc3)n(-c3ccc(Cl)cc3)n2)c1`, the GI50 was 4.11 µM in test [1]; 4.04 µM in test [2]; 3.54 µM in test [3]; 67 µM in test [4]; 33.3 µM in test [5]; 26.6 µM in test [6]. The GI50 in [7] is 4.25 µM; in test [8], 14.3 µM; in test [9], 30.6 µM. Besides, the TGI is above 100 µM in test [1]; above 100 µM in [2]; 12 µM in test [3]; above 100 µM in [4]; above 100 µM in test [5]; above 100 µM in test [6]. The TGI in test [7], in [8] and in test [9] was above 100 µM in each case.
`COCCn1cc(-c2csc(-c3c[nH]c4ccc(Br)cc34)n2)c2cccnc21`: the GI50 in test [2] is 3.84 µM; in [10] it was 3.66 µM; in test [3], 3.9 µM; in test [4], 2.74 µM; in [5] it was 3.68 µM; in test [6], 3.3 µM. The results for the GI50 in test [7] and in test [8] were 7.34 µM and 12.2 µM, respectively. Further, the TGI in [2] is above 100 µM; in [10], 57.6 µM; in [3], above 100 µM; in [4], above 100 µM; in test [5], above 100 µM; in test [6], 11.2 µM. The TGI in [7] and in test [8] was above 100 µM in each case.
`CCCCCC[C@H](C)NC(=O)c1ccc(Nc2nc3ccccc3c3occc23)cc1`: the GI50 in [1] was 3.68 µM; in test [2], 2.14 µM; in [3] it was 3.11 µM; in test [5] it was 5.36 µM; in [6], 3.88 µM; in test [7], 2.48 µM. For the same molecule, the results for the GI50 in [8] and in test [9] were 5.15 µM and 5.26 µM, respectively. In addition, the TGI in test [1] is above 100 µM; in test [2], 6.43 µM; in test [3], 19.7 µM; in test [5], above 100 µM; in test [6], 13.7 µM; in test [7] it was 5.31 µM. The TGI is above 100 µM in test [8] and 33.5 µM in [9].
As for `Fc1ccc(Nc2nc3ccccc3c3occc23)cc1`, the GI50 in test [2] is 0.13 µM; in test [3] it was 1.48 µM; in test [4], 6 µM; in test [5], 7.07 µM; in [6], 12.6 µM; in test [7], 19.3 µM. Further, the results for the GI50 in test [8] and in test [9] were 7.96 µM and 2.06 µM, respectively. Besides, the TGI turned out to be 2.41 µM in test [2]; 12.1 µM in [3]; 25.5 µM in [4]; 20 µM in [5]; 31.5 µM in test [6]; 33.7 µM in [7]. For the same molecule, the TGI in [8] worked out at 24.1 µM; in test [9] it was 6.67 µM.
Regarding `COc1cc(/C=C2\C[C@H]3[C@@H]4CC=C5C[C@@H](OC(C)=O)CC[C@]5(C)[C@H]4CC[C@]3(C)[C@H]2OC(C)=O)ccc1OCCN1CCCC1`, the GI50 in test [1] was 0.935 µM; in [2], 10.5 µM; in test [3] it was 10.9 µM; in test [5], 8 µM; in [6], 14.6 µM; in [7] it was 8.7 µM. Moreover, the results for the GI50 in test [8] and in [9] were 10.9 µM and 9.07 µM, respectively. Also, the TGI was 18.8 µM in test [1]; 30.7 µM in test [2]; 23.6 µM in [3]; 20.4 µM in [5]; 30.8 µM in [6]; 17.3 µM in test [7]. Moreover, the TGI turned out to be 22.5 µM in [8] and 19.7 µM in test [9].
Take `[CH3][Sn]([CH3])([CH3])[O][N+](=O)[O-]`: the GI50 in test [1] is 2.19 µM; in test [2], 2.9 µM; in test [3], 5.06 µM; in test [4] it was 2.66 µM; in [5] it was above 10 µM; in test [6] it was 2.19 µM. In addition, the figures for the GI50 in test [7], in test [8] and in test [9] were 2.48 µM, above 10 µM and above 10 µM, respectively. Also, the TGI in [1] is 6.9 µM; in test [2], above 10 µM; in test [3] it was above 10 µM; in [4], 5.53 µM; in [5], above 10 µM; in [6], 9.73 µM. For the same molecule, the TGI in test [7] was 9.58 µM; in test [8], above 10 µM; in test [9], above 10 µM.
As for `CSc1ccc(C(=O)/C=C/c2ccccc2Cl)cc1`, the GI50 was 19.6 µM in test [1]; 2.08 µM in test [2]; 8.98 µM in test [3]; 25.7 µM in test [4]; 16.5 µM in [5]; 4.23 µM in test [6]. In addition, the GI50 in test [7] is 16.5 µM; in test [8] it was 26.5 µM; in [9], 18.4 µM. For the same molecule, the TGI in [1] was above 100 µM; in test [2], 3.96 µM; in [3], 21.9 µM; in test [4], 66 µM; in test [5], 32.4 µM; in test [6], 16.4 µM. Further, the results for the TGI in test [7], in [8] and in [9] were 33.1 µM, 61.2 µM and 41.5 µM, respectively.

These data come from PubChem BioAssay (NCI).
